Assay results published in patent US20250057793A1, “BENZOIC ACID SALTS FOR TREATMENT OF NERVOUS SYSTEM INJURIES AND DISORDERS” (The United States Government as represented by the …, priority 2021, published 2025).

What was measured:
[1] = system: CCI-induced TBI mice; experiment: Glial activation and iNOS in brain of CCI-induced TBI mice (immunofluorescence, Western blot); conditions: cortex and hippocampus
[2] = system: CCI-induced TBI mice; experiment: Lesion volume in CCI-induced mice (Cavalieri stereology); type: in vivo, mouse
Experimental: FIG. 5C is a plot showing lesion size in the experimental conditions. Lesion size was quantitatively measured in control mice, untreated CCI injured mice, NaB treated CCI-mice and NaFO-treated CCI-mice at 21 days post-injury. Statistical analyses were performed with Student's t-test in the injured side of the brain [^ap<0.001 (5.623×10^−7) vs control; ^bp<0.001 (=0.001) vs CCI injury].
FIGS. 10A-10C. Decrease in lesion volume in TBI mice by GTB treatment. […] FIG. 10A. […] FIG. 10C. Lesion volume was quantified in all groups of mice. Statistical analyses were performed with two way ANOVA and expressed as mean±SD to compare the lesion volume between unlesioned and lesioned side of the brain.
The estimation of lesion volume was performed based on the Cavalieri method of unbiased stereology using the StereoInvestigator software (MicroBright Biosciences, USA). Both the ipsilateral and contralateral hemisphere of brain volumes were determined using the Cavalieri estimator with a 1 mm grid spacing 1 mm. Every fourth section was analyzed beginning from a random start point. Lesion volume was estimated by subtracting the volume of the ipsilateral hemisphere from that of the contralateral hemi-sphere. Then the volume of lesion cavity estimated in brain section of untreated mice was compared with lesion volume of brain sections of drug treated mice.

[3] = system: CCI-injured mice; experiment: Grid runway in CCI-injured mice; type: in vivo, mouse; conditions: 7 day post-injury, 50 mg/kg/day oral
Description: The grid runway (65 cm length×8 cm breadth×1 cm intervals) made of parallel grid bars with interbar intervals of 1 cm apart and grid were kept above the surface on a table during the testing session. The soft padding was positioned under the grid run-way in the event for protection to avoid serious injury, if the animal falls from the grid. Each mouse was allowed to walk freely on grid and the time taken and number of steps to cross the runway was noted. Each successful foot placement on grid was recorded as a step. However, an error was considered whenever the paw slips through the grid or the paw misses a bar and extends downwards through the plane of bars. The locomotor behavior of animal on grid was evaluated by an observer blinded to the treatment on 7th and 21st day after CCI injury.

[4] = system: OPCs cultured on polycaprolactone nanofibers; experiment: Myelination of synthetic polycaprolactone nanofibers by OPCs; type: cell-based, mouse; conditions: 100 μM, 2 days after 7 days culture on nanofibers
Experimental: FIG. 15A) After 18 h of 100 μM NaB treatment in serum-free condition, cells were fixed and then dual immuno-stained with MBP (red) and OPC marker NG2 (green). Nuclei were stained with DAPI (blue). FIG. 15B) Similarly, OPCs were stained with PLP (red) and A2B5 (green) under similar treatment condition. Quantification of MBP+(FIG. 15C), NG2+(FIG. 15D), PLP+(FIG. 15E), and A2B5+(FIG. 15F) cells as a percentage of total cells (DAPI+). Average 5 fields per slide, total 3 slides. Results are mean+SEM. ***p<0.001. FIG. 15G) For protein expression, cells were treated with different doses of NaB for 18 h under serum free condition and then immunoblotted with PLP and MOG. FIG. 15H) Densitometric analyses of the bands relative to beta actin were done for PLP and MOG. ^ap<0.001 vs. control PLP; ^bp<0.005 vs. control MOG. FIG. 151) Cells were treated with NaB (100 μM) and NaFO (100 μM) for 4 h under serum-free condition followed by monitoring the mRNA expression of myelin-specific genes by real-time PCR (ap<0.01 vs. control PLP; ^bp<0.01 vs. control MOG; cp<0.01 vs. control MBP; dp<0.01 vs. control CNPase). OPCs were cultured on the top of randomly-oriented polycaprolactone nanofibers (Nanofiber Solutions; Cat #Z694576) for 7 days. […]

[5] = system: oligodendroglial progenitor cells (OPCs); experiment: Maturation of oligodendroglial progenitor cells (OPCs) into oligodendrocytes; type: cell-based, mouse; conditions: 100 μM, 18 h, serum-free, absence of FGF and PDGF
Experimental: FIGS. 15A-15L: Effect of sodium benzoate (NaB) on the maturation of oligodendroglial progenitor cells (OPCs) into oligodendrocytes. OPCs were isolated from P1˜P2 neonatal mouse pups, cultured in OPC media for 4 days in vitro (DIV) followed by treatment with 100 μM NaB and sodium formate (NaFO) in the absence of FGF and PDGF.
FIG. 15A) After 18 h of 100 μM NaB treatment in serum-free condition, cells were fixed and then dual immuno-stained with MBP (red) and OPC marker NG2 (green). Nuclei were stained with DAPI (blue). FIG. 15B) Similarly, OPCs were stained with PLP (red) and A2B5 (green) under similar treatment condition. Quantification of MBP+(FIG. 15C), NG2+(FIG. 15D), PLP+(FIG. 15E), and A2B5+(FIG. 15F) cells as a percentage of total cells (DAPI+). Average 5 fields per slide, total 3 slides. Results are mean+SEM. ***p<0.001. FIG. 15G) For protein expression, cells were treated with different doses of NaB for 18 h under serum free condition and then immunoblotted with PLP and MOG. FIG. 15H) Densitometric analyses of the bands relative to beta actin were done for PLP and MOG. ^ap<0.001 vs. control PLP; ^bp<0.005 vs. control MOG. FIG. 151) Cells were treated with NaB (100 μM) and NaFO (100 μM) for 4 h under serum-free condition followed by monitoring the mRNA expression of myelin-specific genes by real-time PCR (ap<0.01 vs. control PLP; ^bp<0.01 vs. control MOG; cp<0.01 vs. control MBP; dp<0.01 vs. control CNPase). OPCs were cultured on the top of randomly-oriented polycaprolactone nanofibers (Nanofiber Solutions; Cat #Z694576) for 7 days. After that, these cells were treated with 100 μM NaB (FIG. 15J) and NaFO (K) for additional 2 days followed by immunofluorescence analysis for MBP (red) (FIG. 15J, control; FIG. 15K, NaB; FIG. 15L, NaFO). […] Representative 3D constructed images of OPCs adhered to nanofibers were also shown at the right side.

[6] = system: CCI-injured mice; experiment: Rotarod test in CCI-injured mice; type: in vivo, mouse; conditions: 50 mg/kg/day oral
Experimental: The forehindlimb motor coordination and balance in animals was observed using the rotarod test as described in earlier studies. Briefly, each mouse was placed on the confined section of the rod and trial was initiated with a smooth increase in speed from 4 rpm to 40 rpm for 5 mins. […] The latency to fall was measured in seconds and used for the analysis. Following the CCI injury, each mouse performed the task three trials during the testing sessions and the average score on these three trials was used as the individual rotarod score. Each trial on the rod was terminated when the mice fell off the rod or held on to the rod by hanging and completed improper revolutions.

[7] = system: mice with traumatic brain injury (TBI); experiment: Remyelination in corpus callosum of mice with TBI (PLP/A2B5 double-labeling); type: in vivo, mouse; conditions: 50 mg/kg body weight/day oral gavage
Experimental: FIG. 4 are images of the corpus collosum in mice showing the levels of proteolipid protein (PLP) and A2B5, a marker of oligodendroglial progenitor cells (OPC), in the experimental conditions after 21 days. Oral administration of sodium benzoate (NaB), but not sodium formate (NaFO), stimulates remyelination in mice with traumatic brain injury (TBI). Mice (n=6 per group) were induced moderate TBI by controlled cortical impact (CCI). Starting from 2 hours after TBI, mice were treated with NaB and NaFO (50 mg/kg body weight/day; mixed with water) orally via gavage. After 21 d of treatment, brain sections were double-labeled for PLP and A2B5.
Proteolipid protein (PLP) is a marker of oligodendrocytes and A2B5 is a marker of oligodendroglial progenitor cells (OPC). After 21 days of treatment, brain sections were double-labeled with antibodies against PLP and A2B5.

[8] = system: TBI mice; experiment: Barnes maze test in TBI mice; type: in vivo, mouse; conditions: NOR, Barnes maze and T maze, 21 days, 50 mg/kg/day oral
Experimental: The Barnes maze test was performed as described in our earlier studies. Briefly, the mice were initially trained for 2 consecutive days followed by examination on day 3. After each training session, maze and escape tunnel were thoroughly cleaned with a mild detergent to avoid instinctive odor avoidance due to mouse's odor from the familiar object. On day 3, a video camera (Basler Gen I Cam—Basler acA 1300-60) connected to a Noldus computer system was placed above the maze and was illuminated with high voltage light that generated enough light and heat to motivate animals to enter into the escape tunnel. The performance was monitored by the video tracking system (Noldus System). Cognitive behavior parameters were examined by measuring latency (duration before all four paws were on the floor of the escape box) and errors (incorrect response before all four paws were on the floor of the escape box).

[9] = system: primary mouse microglia; experiment: Proinflammatory cytokine production in primary mouse microglia (ELISA); type: cell-based; conditions: cinnamein 6 h, serum-free, 24 h
Experimental: FIGS. 19A-19B. Cinnamein inhibits LPS- and polyIC-induced production of TNFα in primary mouse microglia. Microglia isolated from 2d old mouse pups were incubated with different concentrations of cinnamein for 6 h followed by stimulation with either 1 μg/ml LPS (FIG. 19A) or 50 μg/ml polyIC (FIG. 19B) under serum-free condition. After 24 h of stimulation, the level of TNFα was measured in supernatants by ELISA. Results are mean+SD of three independent experiments. *p<0.05; **p<0.01; ***p<0.001; NS, not significant.
FIGS. 20A-20B. Cinnamein suppresses the production of IL-1j3 from LPS- and poly IC-stimulated primary mouse microglia. Cells preincubated with different concentrations of cinnamein for 6 h were stimulated with either 1 μg/ml LPS (FIG. 20A) or 50 μg/ml polyIC (FIG. 20B) under serum-free condition. After 24 h of stimulation, the level of […] was measured in supernatants by ELISA. Results are mean+SD of three independent experiments. ***p<0.001.
FIGS. 21A-21B. Cinnamein decreases LPS- and polyIC-induced production of IL-6 in primary mouse microglia. Microglia were incubated with different concentrations of cinnamein for 6 h followed by stimulation with either 1 μg/ml LPS (FIG. 21A) or 50 μg/ml polyIC (FIG. 21B) under serum-free condition. After 24 h of stimulation, the level of IL-6 was measured in supernatants by ELISA. Results are mean+SD of three independent experiments. ***p<0.001.

[10] = system: mouse RAW 264.7 macrophages; experiment: NO production from stimulated RAW 264.7 macrophages (nitrite, Griess reagent); type: cell-based; conditions: cinnamein pretreatment 6 h, serum-free, 24 h; for LPS-induced production of NO (nitrite): 1 μg/ml LPS; for IFNγ-induced production of NO (nitrite): 25 U/ml IFNγ
Experimental: FIGS. 18A-18C. Cinnamein inhibits the induction of NO production from LPS- and IFNγ-stimulated mouse RAW 264.7 macrophages. FIG. 18A) Cells preincubated with different concentrations of cinnamein for 6 h were stimulated with 1 μg/ml LPS under serum-free condition. After 24 h of stimulation, the level of nitrite was measured in supernatants by Griess reagent. FIG. 18B) Cells preincubated with 400 μM cinnamein for different hours were stimulated with 1 μg/ml LPS under serum-free condition. After 24 h of stimulation, the level of nitrite was measured in supernatants. FIG. 18C) Cells preincubated with different concentrations of cinnamein for 6 h were stimulated with 25 U/ml IFNγ under serum-free condition. After 24 h of stimulation, the level of nitrite was measured in supernatants. Results are mean+SD of three independent experiments. *p<0.05; **p<0.01; ***p<0.001; NS, not significant.

[11] = system: primary mouse astrocytes; experiment: Proinflammatory cytokine production in primary mouse astrocytes (ELISA); type: cell-based; conditions: cinnamein 6 h, 50 μg/ml poly IC, serum-free, 24 h
Experimental: FIGS. 22A-22B. Cinnamein inhibits the production of proinflammatory cytokines from polyIC-stimulated primary mouse astrocytes. Astrocytes preincubated with different concentrations of cinnamein for 6 h were stimulated with 50 μg/ml poly IC under serum-free condition. After 24 h of stimulation, levels of TNFα (FIG. 22A) and IL-6 (FIG. 22B) were measured in supernatants by ELISA. Results are mean+SD of three independent experiments. *p<0.05; **p<0.01; ***p<0.001.

[12] = day 7 post-injury, 50 mg/kg/day oral from 24 h after CCI
[13] = 1 μg/ml LPS, listed as Cinnamein
[14] = 50 μg/ml polyIC, listed as Cinnamein

SMILES: O=C[O-].[Na+] [NaFO, sodium formate]
- iNOS / iNOS-positive cells ([1]; day 7, 50 mg/kg/day oral): not
- GFAP-positive astrocytes [1, 12]: remained unable to inhibit glial activation
- Iba1-positive microglia [1, 12]: remained unable to inhibit glial activation
- total lesion volume / size of lesion cavity ([2]; cresyl violet sections, 21 days post-injury, 50 mg/kg/day oral): not
- structural-tissue integrity of damaged hippocampus ([2]; oral treatment started 24 h after CCI): remained unable to exhibit such protection
- gait movement on grid runway (steps, time taken, foot misplacement) [3]: not
- myelination of synthetic fibers (MBP immunofluorescence) [4]: not
- differentiation/maturation of OPCs into oligodendrocytes (MBP+, PLP+, NG2+, A2B5+ cells) [5]: did not promote
- latency to fall on rotarod ([6]; 7 day post-injury): not
- latency to fall on rotarod ([6]; 21 day post-injury): not
- level of PLP in corpus callosum ([7]; 21 days of treatment): remained unable to restore
- number of OPCs (A2B5 positive) in corpus callosum ([7]; 21 days of treatment): remained unable
- remyelination ([7]; 21 d of treatment): not
- hippocampus-dependent behaviors / cognitive performance [8]: remained unable to improve

SMILES: O=C(/C=C/c1ccccc1)OCc1ccccc1 [cinnamein, Cinnamein]
- LPS-induced production of IL-6 ([9]; 1 μg/ml LPS): strongly inhibited
- LPS-induced production of TNFα ([9]; 1 μg/ml LPS): strongly inhibited
- production of IL-1β ([9]; 1 μg/ml LPS): strongly inhibited
- LPS-induced production of IL-6 [9, 13]: decreases
- LPS-induced production of TNFα [9, 13]: inhibits
- production of IL-1β [9, 13]: suppresses
- polyIC-induced production of IL-6 ([9]; 50 μg/ml polyIC): strongly inhibited
- polyIC-induced production of TNFα ([9]; 50 μg/ml polyIC): strongly inhibited
- production of IL-1β ([9]; 50 μg/ml polyIC): strongly inhibited
- polyIC-induced production of IL-6 [9, 14]: decreases
- polyIC-induced production of TNFα [9, 14]: inhibits
- production of IL-1β [9, 14]: suppresses
- LPS-induced production of NO (nitrite) [10]: significantly inhibited
- LPS-induced production of NO (nitrite) ([10]; listed as Cinnamein): inhibits
- IFNγ-induced production of NO (nitrite) [10]: significantly inhibited
- IFNγ-induced production of NO (nitrite) ([10]; listed as Cinnamein): inhibits
- polyIC-induced production of IL-6 [11]: inhibited
- polyIC-induced production of TNFα [11]: inhibited
- polyIC-induced production of IL-6 ([11]; listed as Cinnamein): inhibits
- polyIC-induced production of TNFα ([11]; listed as Cinnamein): inhibits
